# Data as given in patent US20240051960A1, “SPIROCYCLIC IMIDAZOLIDINONES AND IMIDAZOLIDINEDIONES FOR TREATMENT OF LIGHT CHAIN AMYLOIDOSIS” (Protego Biopharma, Inc., priority 2021, published 2024).
# System: Recombinant amyloidogenic full length light chain protein WIL-FL T46L
# Experiment: Differential Scanning Fluorimetry (thermal shift) assay
# Type: binding
# Settings: protein and compounds incubated at RT for 30 min before adding the dye, Thermal Shift Protein Stability Kit, 96-well plates
# Experimental: Differential Scanning Fluorimetry Assay
# The stabilization effects the compounds have on the immunoglobulin light chain protein is quantitively measured using a thermal shift assay. Recombinant amyloidogenic full length light chain protein WIL-FL T46L is produced in E. coli, purified, and used in the assay. The Thermal Shift Protein Stability Kit from Biotium is used and the assay is done in 96-well Plates following the manufacture's instructions. The protein and compounds are incubated at RT for 30 min before adding the dye and subjected to the thermal shift assay. The thermal stability of each sample is then determined using standard curve fitting methods.
# Compounds that induce shifts in the ranges below are listed in the table below: • 0-0.5° C.=* • >0.5-1° C.=** • >1-1.5° C.=*** • >1.5° C.=****
compound,measurement,value
O=C(CN1C(=O)NC2(CCN(c3c[nH]c(=O)[nH]c3=O)CC2)C1=O)Nc1ccc(C(F)(F)F)cc1 [Compound 90],Thermal Shift,**** (>1.5° C.=****)
